{"source": "patent US20220267479A1", "about": "“POLYIODIDE BINDING COMPOUNDS AND METHODS OF USE THEREOF” (North Carolina State University, priority 2019, published 2022)", "key": {"tritosomes": {"system": "tritosomes", "assay": "Indigoid dye formation with tritosomes", "type": "biochemical", "protocol": "The results from the glucosidase survey prompted several further experiments. First, a parallel set of studies was carried out with inclusion of several oxidants commonly employed in histochemical studies, given that the indigoid dye forming process requires the presence of an oxidant. […] The activity of the β-glucosidase was affected only slightly in the presence of a non-ionic detergent. To verify that the results observed in Table 1 were reliable, a 5-mg scale reaction of 33 was carried out to isolate indigo 43, which was obtained in 66% yield (Scheme 7). The 66% isolated yield corresponded well with the enzymatic yield of […] (Table 1, entry 15).\nGeneral methods. β-Glucosidase from almonds (lyophilized powder, >2 units/mg solid) and peroxidase from horseradish were purchased from Sigma-Aldrich. O-Glucosidase from Agrobacterium sp. (recombinant, suspension in 3.2 M (NH4)2SO4) was purchased from Megazyme; the concentration in solution was determined by absorption spectroscopy with E^0.1%32 2.20 cm^−1 at 280 nm.^37 Tritosomes were purchased from XenoTech. Rat liver homogenate was purchased from MP Biomedicals."}, "[1]": {"molecular_target": "T1, β-glucosidase from Agrobacterium (Agrobacterium sp., UniProt P12614)", "T1 construct": "purchased Megazyme; host or cells: recombinant", "T1 sequence (P12614 1-459)": "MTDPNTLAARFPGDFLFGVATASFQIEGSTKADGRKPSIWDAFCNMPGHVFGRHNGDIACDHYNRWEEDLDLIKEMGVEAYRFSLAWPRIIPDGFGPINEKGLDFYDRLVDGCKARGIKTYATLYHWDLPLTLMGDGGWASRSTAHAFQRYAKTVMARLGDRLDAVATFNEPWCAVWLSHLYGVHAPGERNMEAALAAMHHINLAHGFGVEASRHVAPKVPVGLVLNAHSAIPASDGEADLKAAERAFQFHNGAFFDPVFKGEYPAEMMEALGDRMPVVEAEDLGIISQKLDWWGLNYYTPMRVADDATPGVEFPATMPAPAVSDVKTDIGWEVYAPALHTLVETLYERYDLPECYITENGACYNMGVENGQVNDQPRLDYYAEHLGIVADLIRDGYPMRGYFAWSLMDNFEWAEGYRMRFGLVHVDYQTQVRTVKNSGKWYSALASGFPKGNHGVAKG", "assay": "Indigogenic reaction with β-glucosidase from Agrobacterium", "type": "biochemical", "protocol": "Next, the β-glucosidase from Agrobacterium sp. was investigated as the trigger enzyme for indigoid dye formation. […]\nReactions with β-glucosidase from Agrobacterium. An indoxyl compound in DMF (2 μL, 5 mM) and β-glucosidase from Agrobacterium in 10 mM phosphate buffer [2 μL, 10 μM, pH 7.0, containing 50 mM NaCl and 0.6 M (NH4)2SO4] were mixed with 50 mM phosphate buffer (96 μL, pH 7.0). The reaction mixture was incubated at 37° C. for 2 h and then centrifuged for 3 min. Any precipitate was separated from the supernatant and dissolved in DMF (200 μL). The resulting solution was analyzed by absorption spectroscopy. The experiment was repeated three times."}, "rat liver homogenate": {"system": "rat liver homogenate", "assay": "Indigoid-dye formation in rat liver homogenate", "type": "biochemical", "details": "indoxyl 1 mM, 5% DMF, 37° C., 24 h", "protocol": "Finally, indigoid-dye formation was carried out in rat liver homogenate (Table 1, rightmost column).\nReactions in rat liver homogenate. An indoxyl compound in DMF (5 μL, 20 mM) was mixed with rat liver homogenate (95 μL). The reaction mixture was incubated at 37° C. for 24 h. After allowing to cool to room temperature, the reaction mixture was diluted with DMF (900 μL). The mixture was heated at 70° C. for 2 min and then centrifuged for 2 min. The supernatant was separated from any precipitate. This extraction procedure was repeated two or three times with DMF (100-500 μL). The combined supernatant (1500-1800 μL) was analyzed by absorption spectroscopy."}, "[2]": {"system": "β-glucosidase from almonds", "assay": "Indigogenic reaction with β-glucosidase from almonds", "type": "biochemical", "text": "With diverse glucosyl-indoxyl compounds in hand, we carried out a set of studies to examine indigoid-dye formation upon enzymatic cleavage of the glucosyl unit under physiological conditions. Altogether, 14 new (15, 16, 19-27, 30, 33, 41) and 2 known (1, 42) synthetic indoxyl-glucosides (lacking acetyl protecting groups) were examined in an effort to identify suitable combinations of substituents to support both bioconjugation and indigoid dye formation. In initial studies, β-glucosidase from almonds was employed to trigger indigoid dye formation (Table 1). Thus, a mixture of this enzyme (1 unit/mL) and an indoxyl β-glucoside (0.1 μmol, 1 mM) in acetate buffer (pH 5, containing 5% DMF) was incubated at 37° C. for 16-19 h. All indigoid dye was dissolved in each case for quantitative evaluation.\nReactions with β-glucosidase from almonds. An indoxyl compound in DMF (5 μL, 20 mM) and β-glucosidase from almonds in H2O (10 μL, 10 units/mL) were mixed with acetate buffer (85 μL, 50 mM, pH 5.0). The reaction mixture was incubated at 37° C. for 16-19 h and then allowed to cool to room temperature. DMF (300 μL for the reactions of 15, 16, 1, 19, 22, and 25; or 900 μL for the reactions of 42, 20, 21, 23, 24, 26, 27, 30, and 31, respectively) was added to dissolve any indigoid precipitate. The resulting solution was analyzed by absorption spectroscopy."}, "[3]": {"molecular_target": "T2, β-glucosidase from Agrobacterium plus rat liver homogenate (Agrobacterium sp., UniProt P12614)", "T2 construct": "purchased Megazyme; host or cells: recombinant", "T2 sequence (P12614 1-459)": "T1 sequence (P12614 1-459)", "assay": "Reaction of 33 with β-glucosidase from Agrobacterium in rat liver homogenate", "type": "biochemical", "details": "33 100 μM, enzyme 200 nM, 2% DMF, 37° C., 4 h; ε = 2.6 × 10^4 M^-1 cm^-1", "protocol": "Finally, indigoid-dye formation was carried out in rat liver homogenate (Table 1, rightmost column). Good yields were obtained in the case of 42 (65%, entry 4) and 27 (50%, entry 13). […] However, when β-glucosidase from Agrobacterium (200 nM) was present in rat liver homogenate, the indigoid dye was obtained in 81% yield (entry 15).\nReaction of 33 with β-glucosidase from Agrobacterium in rat liver homogenate. A DMF solution of 33 (2 μL, 5 mM) and β-glucosidase from Agrobacterium in 10 mM phosphate buffer [2 μL, 10 μM, pH 7.0, containing 50 mM NaCl and 0.6 M (NH4)2SO4] were mixed with rat liver homogenate (96 μL). The reaction mixture was incubated at 37° C. for 4 h and then centrifuged for 3 min. Any precipitate was separated from the supernatant and then suspended in DMF (200 μL). The suspension was centrifuged for 3 min. The supernatant was analyzed by absorption spectroscopy."}, "[4]": {"type": "physicochemical", "details": "pH 7.4", "text": "Water solubility of the indoxyl glucoside is important for biological applications. […] Therefore, this compound is not suitable for bioconjugation. The synthesis of 34 relies on successive substitution of the dichloroanilinotriazine unit (derived from N,N-bis(2-methoxyethyl)aniline^31 and cyanuric chloride) with indoxyl-glucoside-PEG-OH and BCN-PEG-NH2 building blocks.\nTo improve the water solubility of the indoxyl species, a sulfobetaine unit^32,33 was incorporated as a water-solubilizing group. Sulfobetaines are stable zwitterions over a wide range of pH. Synthesis of an indoxyl bearing a sulfobetaine unit is illustrated in Scheme 6. Boc-piperazine (35) was treated with 1,3-propane sultone to afford 36 in 63% yield. Quaternization of the tertiary nitrogen atom in 36 with 3-bromopropanol gave Boc-protected sulfobetaine 37 in 69% yield. The Boc group was cleaved with trifluoroacetic acid (TFA) to afford piperazine-TFA salt 38 in 97% yield. The N-acetyl group of 32 was selectively deprotected with NaHCO3/MeOH in 84% yield. The product 39, piperazine-TFA salt 38, and BCN-amine 14 were assembled at a triazine ring via one-flask, successive substitution of cyanuric chloride to afford 40 in 51% yield. Cleavage of the acetyl groups of sulfobetaine 40 provided 41 in 98% yield."}, "[5]": {"details": "as E4 but ε = 2.6 × 10^4 M^-1 cm^-1 measured for 43"}}, "note": "“And” between values parts separate entries of the source, which are not always exact repeats. Identical values can stand only once.", "data": [{"compound": "COc1nc(Oc2ccc3[nH]cc(O[C@@H]4O[C@H](CO)[C@@H](O)[C@H](O)[C@H]4O)c3c2)nc(N2CCOCC2)n1", "note": "[Indoxyl 19, 5-[(4-Methoxy-6-morpholino-1,3,5-triazin-2-yl)oxy]-1H-indole-3-yl β-D-glucopyranoside]", "values": [{"measurement": "Indigoid dye formation with tritosomes", "setting": "tritosomes", "value": "low yield of indigoid dye"}, {"measurement": "Yield (%) β-glucosidase from Agrobacterium", "setting": "[1]; indoxyl 100 μM, enzyme 200 nM, 0.05 M phosphate buffer pH 7.0, 2% DMF, 37° C., 2 h, n=3, ε = 1.27 × 10^4 M^-1 cm^-1", "value": "46 ± 5", "unit": "%"}, {"measurement": "Yield (%) rat liver homogenate", "setting": "rat liver homogenate; ε = 1.27 × 10^4 M^-1 cm^-1", "value": "<5", "unit": "%"}, {"measurement": "Yield (%) β-glucosidase from almonds", "setting": "[2]; indoxyl 1 mM, enzyme 1 unit/mL, acetate buffer pH 5, 5% DMF, 37° C., 16-19 h, ε = 1.27 × 10^4 M^-1 cm^-1 (measured for 4)", "value": "<1", "unit": "%"}]}, {"compound": "OCCOCCOCCOc1c(Br)cc2[nH]cc(O[C@@H]3O[C@H](CO)[C@@H](O)[C@H](O)[C@H]3O)c2c1Br", "note": "[Indoxyl 33, 4,6-Dibromo-5-[1-hydroxy-3,6,9-trioxanon-9-yl]-1H-indol-3-yl β-D-glucopyranoside]", "values": [{"measurement": "Yield (%) β-glucosidase from Agrobacterium plus rat liver homogenate", "setting": "[3]", "value": "81% and 81 ± 5%"}, {"measurement": "Yield of indigoid dye", "setting": "[1]; 33 at 1.0 μM, enzyme 200 nM, pH 7.0, 2 h", "value": 41, "unit": "%"}, {"measurement": "Yield of indigoid dye", "setting": "[1]; 33 at 1.0 μM, enzyme 200 nM, pH 7.0, 14 h", "value": 57, "unit": "%"}, {"measurement": "Yield of indigoid dye", "setting": "[1]; 33 at 1.8 μM, enzyme 200 nM, pH 7.0, 2 h", "value": 42, "unit": "%"}, {"measurement": "Yield of indigoid dye", "setting": "[1]; 33 at 1.8 μM, enzyme 200 nM, pH 7.0, 14 h", "value": 79, "unit": "%"}, {"measurement": "Yield of indigoid dye", "setting": "[1]; 33 at 3.2 μM, enzyme 200 nM, pH 7.0, 2 h", "value": 51, "unit": "%"}, {"measurement": "Yield of indigoid dye", "setting": "[1]; 33 at 3.2 μM, enzyme 200 nM, pH 7.0, 14 h", "value": 88, "unit": "%"}, {"measurement": "Yield of indigoid dye", "setting": "[1]; 33 at 5.6 μM, enzyme 200 nM, pH 7.0, 2 h", "value": 62, "unit": "%"}, {"measurement": "Yield of indigoid dye", "setting": "[1]; 33 at 10 μM, enzyme 200 nM, pH 7.0, 2 h", "value": 90, "unit": "%"}, {"measurement": "Yield of indigoid dye", "setting": "[1]; 33 at 18 μM, enzyme 200 nM, pH 7.0, 2 h", "value": 85, "unit": "%"}, {"measurement": "Yield of indigoid dye", "setting": "[1]; 33 at 32 μM, enzyme 200 nM, pH 7.0, 2 h", "value": 86, "unit": "%"}, {"measurement": "Yield of indigoid dye", "setting": "[1]; 33 at 56 μM, enzyme 200 nM, pH 7.0, 2 h", "value": 89, "unit": "%"}, {"measurement": "Yield (%) β-glucosidase from Agrobacterium", "setting": "[1]; [5]", "value": "99% and 99 ± 5^g %"}, {"measurement": "Yield of indigoid dye", "setting": "[1]; pH 4, 33 100 μM, enzyme 200 nM, phosphate buffer, 37° C., 3 h", "value": 6, "unit": "%"}, {"measurement": "Yield of indigoid dye", "setting": "[1]; pH 5, 33 100 μM, enzyme 200 nM, phosphate buffer, 37° C., 3 h", "value": 38, "unit": "%"}, {"measurement": "Yield of indigoid dye", "setting": "[1]; pH 6-8, 10 nM enzyme, 33 100 μM, 2 h", "value": "50-71%"}, {"measurement": "Yield of indigoid dye", "setting": "[1]; pH 6-9, 33 100 μM, enzyme 200 nM, 3 h", "value": "High to quantitative yields"}, {"measurement": "Yield (%) rat liver homogenate", "setting": "rat liver homogenate; ε = 2.6 × 10^4 M^-1 cm^-1 measured for 43", "value": "< 5", "unit": "%"}, {"measurement": "Yield (%) β-glucosidase from almonds", "setting": "[2]; as E1 but ε = 2.6 × 10^4 M^-1 cm^-1 measured for 43", "value": "52% and 52^g %"}]}, {"compound": "O=C(NCCOCCOCCNc1nc(OCCOCCOCCOc2c(Br)cc3[nH]cc(OC4O[C@H](CO)[C@@H](O)[C@H](O)[C@H]4O)c3c2Br)nc(N2CC[N+](CCCO)(CCCS(=O)(=O)[O-])CC2)n1)OC[C@@H]1[C@@H]2CCC#CCC[C@@H]21", "note": "(stereo partly drawn) [Indoxyl 41]", "values": [{"measurement": "Yield (%) β-glucosidase from Agrobacterium", "setting": "[1]; [5]", "value": "106% and 106 ± 4^g %"}, {"measurement": "Solubility", "setting": "[4]", "value": "> 400", "unit": "µM"}]}, {"compound": "5-[(Benzylcarbamoyl)oxy)]-1H-indole-3-yl β-D-glucopyranoside [Indoxyl 16]", "values": [{"measurement": "Indigoid dye formation with tritosomes", "setting": "tritosomes", "value": "low yield of indigoid dye"}, {"measurement": "Yield (%) rat liver homogenate", "setting": "rat liver homogenate; ε = 1.27 × 10^4 M^-1 cm^-1", "value": 9, "unit": "%"}]}]}
